Series [1] concerns T. b. brucei strain 427 (bloodstream forms). The experiment in a line: Anti-trypanosomal activity on T. brucei (resazurin growth inhibition, 3 days). Format: cell-based, Trypanosoma brucei. An excerpt: To identify inhibitors of T. brucei growth, we conducted a screening of a proprietary library consisting of 440 purified natural products isolated from medicinal plants at the CNU laboratories. […] Nevertheless, since, according to the 5th rule, natural products may also represent exceptions from the other rules, all compounds were submitted to antiparasitic screening performed at a single concentration of 5 ppm (µg/mL) of each purified natural product.
T. b. brucei strain 427 (bloodstream forms) were cultivated at 37 °C with 5% CO2 atmosphere in HMI-9 medium supplemented with 10% FBS. […] After the incubation, the parasites were exposed to 120 µM of resazurin sodium salt for 5 h. Then, the parasites were fixed with 4% PFA and the assay plates were read by Victor 3 (PerkinElmer, Waltham, MA, USA) at 530 nmEx/590 nmEm. Pentamidine was used as a reference drug and DMSO 0.5% was used as a drug-negative control.
A general note: The colour change of resazurin is a common sign of viable cells or microbes.

A short description of series [2]: Cytotoxicity assay (resazurin, 3 days), HEK293T. Format: cell-based, human. The conditions noted are these: human. Here is the method:
(§1) HEK293T and HepG2 cells were cultured at 37 °C with 5% CO2 in Dulbecco’s modified eagle medium containing 10% FBS. Both cell lines were plated individually in 384 well plates (4000 cells per well) and the natural compounds (two fold 10 points serial dilution starting from 5 ppm) were added for 3 days of incubation.

For a further series, the system named is HEK293T cells. The experiment in a line: Cytotoxicity assay (resazurin, 3 days), HEK293T. The following applies: CC50 (HEK293T)/IC50 (T. brucei). Format: cell-based, human. Here is the method:
as §1

Series [3] is described as follows: Cytotoxicity assay (resazurin, 3 days), HepG2. It is filed as cell-based, human. The following applies: human. The protocol:
as §1

In the next series the test system is HepG2 cells. The series is described as follows: Cytotoxicity assay (resazurin, 3 days), HepG2. The conditions noted are these: CC50 (HepG2)/IC50 (T. brucei). Format: cell-based, human. Here is the method:
as §1

[4] abbreviates: Trypanosoma brucei, -log IC50 [M], experimental, read-out: pIC50 Tbr(exp) (converted).
[5] abbreviates: T. b. brucei strain 427 bloodstream forms, 3 days, mean ± SD, read-out: T. brucei IC50.
Where [6] appears, read: Trypanosoma brucei, 72 h, T. b. brucei strain 427 bloodstream forms, 3 days, mean ± SD, read-out: T. brucei IC50.

The source of these data is publication PMC6273235, “Phenolic Constituents of Medicinal Plants with Activity against Trypanosoma brucei” (Molecules, 2016).

Read-outs that look alike come from different tables or passages of the source. A value given as a limit tells only on which side of the number the result lay.

As usually defined, the CC50 is the concentration that lowers cell viability or growth by half. Take `CC(C)=CCc1cc(C(=O)/C=C/c2ccc(O)c(O)c2)c(O)cc1O` [Compound 4, broussochalcone A]: the IC50 in series [1] (setting [4]) is 2.17e-06 M. Moreover, the figures for the CC50 at 3 days in series [2] and in series [3] were above 28.8 µM and above 29.2 µM, respectively. Besides, the “s.i (selectivity index) HEK239T” value with HEK293T cells is on record as above 13.28.
For `COc1cc(O)ccc1C(=O)/C=C/c1ccc(O)cc1` [Compound 5, 3-deoxysappanchalcone], the IC50 is 1.04e-05 ± 3.36e-06 M in series [1] (setting [5]), above 1e-05 M in series [1] (setting [6]) and 1.04e-05 M in series [1] (setting [4]). Also, the values for the CC50 at 3 days in series [2] and in series [3] were above 30.2 µM and above 37.1 µM, respectively. Moreover, the “s.i (selectivity index) HEK239T” value in the series on HEK293T cells is above 2.91. Also, the “s.i (selectivity index) HepG2” value with HepG2 cells was above 3.58.
Consider `CC(C)=CCC/C(C)=C/Cc1c(O)ccc(C(=O)/C=C/c2ccc(O)cc2)c1O` [Compound 6, xanthoangelol], for which the IC50 is 7.42e-06 ± 1.12e-06 M in series [1] (setting [6]) and 7.41e-06 M in series [1] (setting [4]). Also, the CC50 at 3 days in series [2] and in series [3] was above 25.4 µM throughout. Besides, the “s.i (selectivity index) HEK239T” value in the series with HEK293T cells is reported as above 3.43. In addition, the “s.i (selectivity index) HepG2” value with HepG2 cells is on record as above 3.43.
Regarding `COc1cc(CC/C=C/C(=O)CCc2ccccc2)ccc1O` [Compound 7, 7-(4″-hydroxy-3″-methoxyphenyl)-1-phenylhept-4-en-3-one], the IC50 in series [1] (setting [4]) was 2.48e-06 M. In addition, the CC50 at 3 days in series [2] and in series [3] was above 32.4 µM throughout. Further, the “s.i (selectivity index) HEK239T” value in the series with HEK293T cells was above 13.05. Besides, the “s.i (selectivity index) HepG2” value in the series with HepG2 cells was above 13.05.
In the case of `COc1cc(C=CC=O)ccc1O` [Compound 8, 4-hydroxy-3-methoxycinnamaldehyde], the IC50 in series [1] (setting [5]) was 1.64e-05 ± 2.78e-06 M; in series [1] (setting [6]) it was above 1e-05 M; in series [1] (setting [4]), 1.64e-05 M. Besides, the CC50 at 3 days is above 48.1 µM in series [2] and above 57 µM in series [3]. Further, the “s.i (selectivity index) HEK239T” value with HEK293T cells is reported as above 2.93. The “s.i (selectivity index) HepG2” value with HepG2 cells is reported as above 3.47.
In the case of `C=CCc1ccc(Oc2cc(/C=C/C=O)cc(O)c2O)cc1` [Compound 9, obovatal], the IC50 in series [1] (setting [6]) is 9.89e-06 ± 5.1e-07 M; in series [1] (setting [4]), 9.89e-06 M. Besides, the CC50 at 3 days in series [2] and in series [3] was above 33.8 µM throughout. Further, the “s.i (selectivity index) HEK239T” value in the series on HEK293T cells is above 3.42. In addition, the “s.i (selectivity index) HepG2” value with HepG2 cells is on record as above 3.42.
`C=CCc1ccc(O)c(-c2ccc(O)c(CC=C)c2)c1` [Compound 10, honokiol]: the IC50 in series [1] (setting [6]) was 8.76e-06 ± 3.8e-07 M; in series [1] (setting [4]), 8.77e-06 M. Also, the cytotoxic concentration (CC50) at 3 days in series [2] and in series [3] was above 37.6 µM throughout. For the same molecule, in the series with HEK293T cells, the “s.i (selectivity index) HEK239T” value is above 4.29. Also, the “s.i (selectivity index) HepG2” value in the series with HepG2 cells is listed as above 4.29.
Turning to `C=C[C@H](OC(C)=O)c1ccc(OC(C)=O)cc1` [Compound 11, 1′S-1′-acetoxychavicol acetate], the IC50 was 4.7e-06 ± 1.53e-06 M in series [1] (setting [5]), below 5e-06 M in series [1] (setting [6]) and 4.7e-06 M in series [1] (setting [4]). Besides, the half-maximal cytotoxic concentration (CC50) at 3 days in series [2] was above 23.2 µM; in series [3], above 30 µM. Further, the “s.i (selectivity index) HEK239T” value in the series on HEK293T cells is on record as above 4.94. Moreover, in the series on HepG2 cells, the “s.i (selectivity index) HepG2” value was above 6.38.
With `COc1ccc([C@H](O)[C@@H](C)Oc2ccc([C@H]3O[C@H](c4ccc5c(c4)OCO5)[C@H](C)[C@H]3C)cc2OC)cc1OC` [Compound 12, saucerneol D], the IC50 was 5.61e-06 ± 9e-08 M in series [1] (setting [6]) and 5.61e-06 M in series [1] (setting [4]). Moreover, the CC50 at 3 days is above 16.2 µM in series [2] and above 18.6 µM in series [3]. For the same molecule, in the series on HEK293T cells, the “s.i (selectivity index) HEK239T” value is above 2.89. Further, the “s.i (selectivity index) HepG2” value in the series on HepG2 cells was above 3.32.
For `COc1ccc([C@@H](O)[C@@H](C)Oc2ccc([C@H]3O[C@H](c4ccc(O[C@H](C)[C@H](O)c5ccc(OC)c(OC)c5)c(OC)c4)[C@H](C)[C@H]3C)cc2OC)cc1OC` [Compound 13, manassantin A], the IC50 in series [1] (Trypanosoma brucei, 72 h, read-out: T. brucei IC50) was 5.43e-06 ± 2.6e-07 M; in series [1] (Trypanosoma brucei, read-out: pIC50 Tbr(exp) (converted)), 5.43e-06 M. In addition, the CC50 at 3 days is above 11.8 µM in series [2] (HEK293T cells, 3 days, > = highest concentration tested (5 ppm), read-out: Cytotoxicity CC50 Values HEK239T) and above 13.7 µM in series [3] (HepG2 cells, 3 days, > = highest concentration tested (5 ppm), read-out: Cytotoxicity CC50 Values HepG2).
With `N=C(N)c1ccc(OCCCCCOc2ccc(C(=N)N)cc2)cc1` [Pentamidine, reference compound], the IC50 in series [1] (setting [6]) is 4e-09 ± 3e-09 M. Also, the “s.i (selectivity index) HEK239T” value with HEK293T cells is below 26.7.
